# Laboratory results taken from patent US20250019644A1, “Quantitatively Mapping Amino Acid Properties (QMAP) Cell Culture Media” (UNIVERSITY OF IOWA RESEARCH FOUNDATION, priority 2023, published 2025).
# Assays:
# 3T3-L1 = experiment: CellTiter-Glo Luminescent Cell Viability Assay; format: cell-based, mouse; settings: 2 mM, 24 hours, DMEM
# Protocol: (§1) HT29, 293T, U2OS, and 3T3-LI cells were plated on an opaque 96-well plate in 1:1 DMEM. […] At the appropriate time point, 100 μl of CellTiter-Glo reagent (Promega #G7570) was added to each well. The plate was gently mixed for 2 minutes to induce lysis, incubated at room-temperature for 10 minutes, and then luminescence was measured.
# (§2) To test whether tryptophan inhibition of growth applied to other cell lines and persisted in conventional cell culture media, two human cancer cell lines (HT29, U2OS), a transformed human embryonic kidney cell line (293T), and a mouse, fibroblast-like cell line (3T3-L1) were grown in DMEM for 24 hours and then treated with 2 mM tryptophan or vehicle. After 24 hours, cells were assayed by CellTiter-Glo, which indicates cell viability by measuring ATP production.
# HCT116 cells = experiment: Screen 2: metabolic profiling with unlabeled amino acids (LC-MS); format: cell-based, human; settings: 0.5, 1, 2 mM, dose-dependent, 6 hours
# Protocol: Media was changed to QMAP plus individual amino acid treatments at the start of the experiment. 200 mM amino acid stocks were used to make the QMAP+individual amino acid treatment medias that were placed in the tissue culture incubator for 30-45 minutes prior to the start of the dosing for equilibration of media bicarbonate with incubator CO2. For metabolomic profiling experiments, cells were treated with additional amino acid doses of 0.5, 1 and 2 mM, and 1 mM was used for stable isotope tracing experiments. To minimize systematic error, each amino acid dose was added as a batch (20 amino acids+vehicle control) such that each well of each plate contained a different amino acid. The process was repeated for the other two concentrations of amino acids on the next plates to make set. This was repeated four more times to achieve the sample size of 5 replicates for each of the 3 doses of amino acids. Each plate was then incubated for 6 hours in the tissue culture incubator before being rapidly washed twice with sterile water and snap frozen on liquid nitrogen before being stored at −80° C. The next day, the plates were lyophilized for 90 minutes and then stored at −80° C.
# Extraction buffer was prepared by adding 2:2:1 methanol: acetonitrile: water. For profiling, the following internal standards (Cambridge Isotope Laboratories) were added at 1 μg/mL each: L-Valine-D8, L-Aspartate (^13C4, D3, ^15N) and Succinate (13C4D4). 6-well plates were removed from storage at −80° C. and 1 ml of ice-cold extraction buffer was added. Plates were incubated at −20° C. for 5 minutes, scraped, transferred to microcentrifuge tubes and frozen in liquid nitrogen. Tubes were then placed into a sonicating water bath for 10 minutes and rotated at −20° C. for 1 hour before being centrifuged at 4° C. for 10 minutes at 21,000×g. […] of extract was dried down completely using a speed-vacuum (˜90 min), dissolved in […] of acetonitrile: water (1:1), vortexed for 10 min, and stored overnight at −20° C. to allow protein precipitation. Samples were then centrifuged at 4° C. for 10 minutes at 21,000×g and the supernatants were transferred into autosampler vials for analysis. For the QCs, […] of each extract was pooled, at the step prior to drying down, mixed and dried in […] amounts alongside the samples. Once dried, QCs were processed with the samples but recombined prior to being aliquoted into autosampler vials. All samples were then frozen at −80° C., and only one set of samples, which included a QC aliquot, was thawed, vortexed and placed into the instrument.
# The sheath gas flow was set to 40 units, the auxiliary gas flow was set to 15 units and the sweep gas flow was set to 1 unit. […] For tracing, […] of sample was injected twice in either positive or negative mode to maximize detection efficiency and minimize metabolite crowding using the Sim-mode.
# LC-MS data was processed using the Thermo Scientific TraceFinder 5.1 software.
# The three cell lines were then treated with 0.5, 1, and 2 mM of individual, unlabeled amino acids, and metabolic profiling was performed to determine how individual amino acids quantitatively altered metabolite abundance (Screen 2).
# HT29 = experiment: CellTiter-Glo Luminescent Cell Viability Assay; format: cell-based, human; settings: 2 mM, 24 hours, DMEM
# Protocol: as §1, §2
# 293T = experiment: CellTiter-Glo Luminescent Cell Viability Assay; format: cell-based, human; settings: 2 mM, 24 hours, DMEM
# Protocol: as §1, §2
# HCT15 cells = experiment: Crystal Violet Cell Cytotoxicity Assay; format: cell-based; settings: Homo sapiens, HCT-15; 2 mM, 48 hours, QMAP, compared to QMAP only; read-out: decrease in cell viability
# Protocol: HCT15 cells were plated in 1:1 DMEM: QMAP media on a clear 96-well plate. After 18 hours, cells were treated with 200 μl of QMAP (CTRL) or QMAP plus an amino acid (2 mM). Cells were then grown for 48 hours, followed by a live/dead assay using the Crystal Violet Cell Cytotoxicity Assay Kit (BioVision, #K329) according to the manufacturer's directions. Briefly, cells were washed with 200 μl of 1× washing solution and incubated in 50 μl of crystal violet staining solution for 20 minutes. Cells were washed four times with 200 μl of 1× washing solution to remove dead cells. Cells were then incubated in 100 μl of solubilization solution for 20 minutes, and absorbance was measured at 595 nm.
# An amino acid screen of all 20 essential and non-essential amino acids was performed to assess the differential effects of amino acids on cancer cell proliferation. Because commercially available cell culture media such as DMEM or RPMI contain variable concentrations of amino acids, a chemically defined, custom minimal media was designed containing all amino acids present at 0.3 mM, referred to as QMAP. HCT15 cells, a colon cancer cell line, were plated in 50:50 DMEM: QMAP and left to attach overnight. […] After 48 hours, cell proliferation was measured by crystal violet dye, which binds to ribose-like molecules such as DNA and assumes dead cells become unattached and are washed away.
# U2OS = experiment: CellTiter-Glo Luminescent Cell Viability Assay; format: cell-based, human; settings: 2 mM, 24 hours, DMEM
# Protocol: as §1
# as §2, with “After 24 hours, cells were assayed by CellTiter-Glo, which indicates cell viability by measuring ATP production.” left out
smiles,measurement,setting,value
"N[C@@H](Cc1c[nH]c2ccccc12)C(=O)O [tryptophan, L-tryptophan]",cell viability compared to vehicle,3T3-L1,significant decreases
same,distal TCA cycle metabolite levels (alpha-ketoglutarate to malate),HCT116 cells,decreased
same,glutamine levels,HCT116 cells,increased
same,cell viability compared to vehicle,HT29,significant decreases
same,cell viability compared to vehicle,293T,significant decreases
same,cytotoxicity at 2000 µM,HCT15 cells,~50%
same,cell viability compared to vehicle,U2OS,significant decreases
